Experimental data published in patent US4149007A, “C14 Phenyl-substituted derivatives of prostaglandin analogues” (Miles Laboratories, Inc., priority 1977, dated 1979).

Key:
rabbit aortic strip = experiment: Cascade assay: rabbit aortic strip; format: cell-based; conditions: in vitro, smooth muscle stimulant ED50 scored
Procedure: (§1) (A) effects on the rat stomach, rat colon, chick rectum, and rabbit aorta in vitro (cascade assay);
(§2) The smooth muscle stimulant effects of test compounds were determined simultaneously in four different tissues that are known to be reactive to naturally occurring prostaglandins. Segments of rat stomach fundus, rat colon, chick rectum and rabbit aortic strip were obtained as described by: Vane, J. R., Brit. J. Pharmacol., 12: 344 (1957); Regoli, D. and Vane, J. R., Brit. J. Pharmacol., 23: 351 (1964); Mann, M. and West, G. B., Brit. J. Pharmacol., 5: 173 (1950); and Furchgott, R. F. and Bhadrakom, R., J. Pharmacol. Exper. Ther., 108: 129 (1953). One end of each preparation was tied to the bottom of a 10 ml tissue chamber and the other to a force displacement transducer (Grass FT-03) for continuous tension recording. The stomach, colon, and rectum segments were stretched to an initial tension of 1 g, while the aortic strip was subjected to 4 g. All preparations were left undisturbed for 1 hour prior to testing. […]
(§3) Test compounds were diluted from stock solutions so as to administer quantities ranging from 0.0001 to 100,000 ng in a volume of 0.5 ml. […] Maximal increases in tension after each dose were measured and the results were used to plot dose-response curves. […]
(§4) Activity in each tissue was scored according to the following scale: […]

rat = experiment: Effects on gastric secretion in the rat; format: in vivo; conditions: pylorus ligated, 1.5 mg/kg s.c. twice (total 3.0 mg/kg), 4 hours
Procedure: (F) effect on gastric secretion in the rat;
A procedure based on that described by Lipman, W. (J. Pharm. Pharmacol., 21: 335 [1968]) was used to assess the influence of test compounds on gastric secretion. Rats of one sex weighing 150 to 200 g were randomly divided into groups of six animals each and fasted for 48 hours previous to the experiments, water being available ad libitum. The animals were anesthetized with ether, the abdomen opened through a midline incision, and the pylorus ligated. Test compounds were diluted from stock solution so as to administer a dose of 1.5 mg/kg in a volume equivalent to 1 ml/kg. Subcutaneous injections were applied immediately after surgery and again 2 hours later, so that a total dose of 3.0 mg/kg was administered. Dilutions were made with phosphate buffer (pH 7.38) as recommended by Lee et al. (Prostaglandins, 3: 29 [1973]) in order to insure adequate stability of drugs at the subcutaneous depot. […]
Four hours after pyllric ligation the animals were killed with ether, the cardias ligated, and the stomachs removed. The volume of gastric secretion was measured and the contents centrifuged at 5000 rpm for 10 minutes. […]
Volume and total acid values of the treated group were compared with those of the controls […]. Antisecretory activity was scored according to the following scale: […]

human platelet [1] = experiment: Inhibition of human platelet aggregation in vitro; format: cell-based; conditions: human platelet rich plasma, collagen-induced
Procedure: (E) effect on human platelet aggregation in vitro; and
The ability of test compounds to inhibit platelet aggregation was determined by a modification of the turbidometric technique of Born, G. V. R. (Nature, 194: 927 [1962]). Blood was collected from human volunteers, who had not ingested aspirin or aspirin-containing products within the preceding two weeks, in heparinized containers and was allowed to settle for one (1) hour. The platelet rich plasma (prp) supernates were collected and pooled. Siliconized glassware was used throughout.
In a representative assay, 1.9 ml of PRP and 0.2 ml of test compound at the appropriate concentration ([…]), or 0.2 ml of distilled water (control procedure) were placed in sample cuvettes. The cuvettes were placed in a 37° C. incubation block for 15 minutes, and then in a spectrophotometer linked to a strip chart recorder. After 30-60 seconds, 0.2 ml of a solution, prepared by diluting a calf-skin collagen solution 1:9 with Tyrodes' Solution, was added to each cuvette. Platelet aggregation was evidenced by a decrease in optical density.
An ED50 value was then determined graphically.

rat colon = experiment: Cascade assay: rat colon; format: cell-based; conditions: in vitro, smooth muscle stimulant ED50 scored
Procedure: as §1, §2, §3, §4

rat uterus = experiment: Effects on the rat uterus in vitro; format: cell-based; conditions: dose producing response 50% that of carbachol
Procedure: (B) effect on the rat uterus in vitro;
The uterine stimulant effect of test compounds was determined in segments of uterus obtained from rats (140-160 g) pretreated subcutaneously with 1 mg/kg of diethylstilbesterol 18 hours before the experiment. The tissues were placed in 10 ml chambers filled with de-Jalon solution at 29° C., were aerated and bubbled with 95% O2 and 5% CO2, and were prepared for isometric recording with force displacement transducers. Preparations were stretched to an initial tension of 1 g and were left undisturbed for 30 minutes. Carbachol (1 mcg/ml) was then added to the bath and a response was recorded. After a ten minute interval the carbachol procedure was repeated. Responses to increasing concentrations of a test compound (0.001 to 10 mcg/ml with one log intervals) were then recorded every 10 minutes. Preparations were washed four times after each response. All doses of compounds were administered in a 0.1 ml volume. Because it has been observed that the magnitude of the second response to carbachol (approximately 10% greater than the first) is close to the maximal response of the tissue, such value was taken as a measure of the sensitivity of a particular segment. Responses to each concentration of the test compound were expressed in terms of percentage of the second response to carbachol and the ED50 (dose producing a response 50% that of carbachol) was calculated graphically.
Activity was scored according to the following scale: […]

hypertensive rat = experiment: Effects on blood pressure in the hypertensive rat; format: in vivo; set-up: key: 0: Not significant at any time interval; 1: Significant at one time interval; 2: Significant at two time intervals; conditions: 1 mg/kg intraperitoneal; 2, 4, 6 and 9 hours
Procedure: (I) effect on systolic blood pressure in the hypertensive rat
The acute anithypertensive activity of test compounds was determined in rats made hypertensive by the procedure of Grollman (Proc. Soc. Exper Biol. Med., 57: 102 [1944]). Female rats weighing between 60 and 100 g were anesthetized with ether, the right kidney approached through a flank retroperitoneal incision, decapsulated and tied with a figure-of-eight-ligature. The animals were left to recover and two weeks later were again anesthetized and the contralateral kidney removed. […]
Blood pressure was measured in the tail with an inflatable occluding cuff placed at the base of the extremity and a pulse detector located distally. The cuff was inflated to approximately 300 mmHg and was slowly deflated until pulsations appeared, indicating the level of systolic pressure; diastolic pressure was not recorded by this procedure. […] In all cases, three pressure readings were obtained in succession and mean values were calculated thereof.
Experiments were carried out in groups of five hypertensive rats in which systolic pressure was determined immediately before and 2, 4, 6 and 9 hours after intraperiotoneal administration of the test compound at a dose of 1 mg/kg. Drugs were diluted from stock solutions with phosphate buffer (Lee et al., Prostaglandins, 3: 29 [1973]), so as to inject this quantity in a volume of 1 ml/kg. […]

chick rectum = experiment: Cascade assay: chick rectum; format: cell-based; conditions: in vitro, smooth muscle stimulant ED50 scored
Procedure: as §1, §2, §3, §4

rat stomach fundus = experiment: Cascade assay: rat stomach fundus; format: cell-based; conditions: in vitro, smooth muscle stimulant ED50 scored
Procedure: as §1, §2, §3, §4

growth hormone = conditions: rats; cited from earlier work
man = conditions: cited from earlier work
tracheal smooth muscle = conditions: in vitro, most mammalian respiratory tracts; cited from earlier work
[2] = test system: smooth muscle of the vas deferens; conditions: cited from earlier work
[3] = test system: motor pathways in the central nervous system; conditions: cited from earlier work
human platelet [4] = conditions: compared with compounds of Formula IV; cited from earlier work
adrenal glands = conditions: hypophysectomized rats; cited from earlier work
blood platelets = conditions: in vitro; cited from earlier work
[5] = variety of mammals; cited from earlier work

With `COC(=O)CCCc1ccccc1CC1C(=O)CCC1/C=C(\c1ccccc1)[C@H](C)O` (stereo partly drawn) [Example 4, Methyl 5,6,17,18,19,20-hexanor-4,7,-inter-o-phenylene-14-phenyl-15S-hydroxy-9-oxo-ent-prost-13E-en-1-oate] the “Cascade, Aorta: activity value (ED50)” value (rabbit aortic strip) was 0 (>10000), the “Gastric Secretion: activity value (% decrease in acidity)” value (rat) was 0 (<26) and the “Platelet Aggregation: activity value (ED50)” value (human platelet [1]) was 1 (>0.1 and ≤1.0). For the same compound, the “Cascade, Colon: activity value (ED50)” value (rat colon) was 0 (>10000), the “Rat Uterus: activity value (ED50)” value (rat uterus) was 0 (>10) and the “Blood Pressure Hypertensive Rat: activity value” (hypertensive rat) was 0. For the same compound, the “Cascade, Rectum: activity value (ED50)” value (chick rectum) was 0 (>10000) and the “Cascade, Stomache: activity value (ED50)” value (rat stomach fundus) was 0 (>10000).

In the case of `CCCCC[C@H](O)/C=C/[C@H]1C=CC(=O)[C@@H]1CCCCCCC(=O)O` [PGA1], the “synthesis of the growth hormone” value (growth hormone) is listed as “increases its synthesis” and the “gastric secretion, man” value (man) is listed as “exhibits similar activity in man”.

In the case of `CCCCC[C@H](O)/C=C/[C@H]1[C@H](O)CC(=O)[C@@H]1CCCCCCC(=O)O` [PGE1], the “effect on tracheal smooth muscle” value (tracheal smooth muscle) is listed as “relax”, the “release of the growth hormone” value (growth hormone) is listed as “increase the release of the growth hormone” and the “effect on smooth muscle of the vas deferens” value [2] is listed as “contracts the smooth muscle of the vas deferens”. For the same compound, the “transmission along motor pathways in the central nervous system” value [3] was “retards”, the “inhibition of human platelet aggregation, comparison with natural prostaglandin” value (human platelet [4]) was “displays similar activity” and the “steroidogenesis in the adrenal glands” value (adrenal glands) was “stimulate stereoidogenesis in the adrenal glands”. The “aggregation of blood platelets” value (blood platelets) was “inhibits aggregation of blood platelets in vitro”.

For `CCCCC[C@H](O)/C=C/[C@@H]1[C@@H](CCCCCCC(=O)O)[C@@H](O)C[C@H]1O` [PGF1α], the luteolytic effect [5] is given as “act as luteolytic factors” and the “steroidogenesis in the adrenal glands” value (adrenal glands) is given as “stimulate stereoidogenesis in the adrenal glands”.
